These results are taken from ChEMBL document CHEMBL3994622, “Design and synthesis of new RAF kinase-inhibiting antiproliferative quinoline derivatives. Part 2: Diarylurea derivatives” (Eur J Med Chem, 2017).

What all share (type): functional
One assay deals with SK-MEL-5. Kind of assay: Growth inhibition of human SK-MEL-5 cells assessed as cell growth at 0.01 uM incubated for 48 hrs by sulforhodamine B assay relative to control. The following applies: SK-MEL-5, 48 h, read-out: Activity. In general terms: The SRB assay estimates cell density from bound dye.
For a further assay, the system named is SR. The assay is described as follows: Growth inhibition of human SR cells assessed as cell growth at 10 uM incubated for 48 hrs by sulforhodamine B assay relative to control. The note with it: read-out: Activity.
Another assay has as its system LOX IMVI. Kind of assay: Growth inhibition of human LOXIMVI cells assessed as cell growth at 0.1 uM incubated for 48 hrs by sulforhodamine B assay relative to control. The note with it: read-out: Activity.
The subject of another assay is SNB-19. Kind of assay: Growth inhibition of human SNB19 cells assessed as cell growth at 1 uM incubated for 48 hrs by sulforhodamine B assay relative to control. The following applies: SNB-19, 48 h, read-out: Activity.
In assay [1] the test system is K562. The assay is described as follows: Growth inhibition of human K562 cells assessed as cell growth at 10 uM incubated for 48 hrs by sulforhodamine B assay relative to control. The note with it: K562, 48 h, read-out: Activity.
In assay [2] the test system is NCI-H322M. Kind of assay: Growth inhibition of human NCI-H322M cells assessed as cell growth at 10 uM incubated for 48 hrs by sulforhodamine B assay relative to control. The following applies: read-out: Activity.
Assay [3] deals with UACC-257. The assay is described as follows: Growth inhibition of human UACC257 cells assessed as cell growth at 0.1 uM incubated for 48 hrs by sulforhodamine B assay relative to control. The following applies: UACC-257, 48 h, read-out: Activity.
The test system of the next assay is BT-549. The assay is described as follows: Growth inhibition of human BT549 cells assessed as cell growth at 0.1 uM incubated for 48 hrs by sulforhodamine B assay relative to control. The following applies: BT-549, 48 h, read-out: Activity.
Assay [4] deals with PC-3. Kind of assay: Growth inhibition of human PC3 cells assessed as cell growth at 1 uM incubated for 48 hrs by sulforhodamine B assay relative to control. The note with it: PC-3, 48 h, read-out: Activity.
In a further assay the test system is HT-29. The assay is described as follows: Growth inhibition of human HT-29 cells assessed as cell growth at 100 uM incubated for 48 hrs by sulforhodamine B assay relative to control. The note with it: HT-29, 48 h, read-out: Activity.
In assay [5] the test system is SW-620. The assay is described as follows: Growth inhibition of human SW620 cells assessed as cell growth at 0.1 uM incubated for 48 hrs by sulforhodamine B assay relative to control. The note with it: SW-620, 48 h, read-out: Activity.
For assay [6], the system named is Hs-578T. Kind of assay: Growth inhibition of human Hs 578T cells assessed as cell growth at 10 uM incubated for 48 hrs by sulforhodamine B assay relative to control. The following applies: read-out: Activity.
Assay [7] concerns NCI-H322M. The assay is described as follows: Growth inhibition of human NCI-H322M cells assessed as cell growth at 0.01 uM incubated for 48 hrs by sulforhodamine B assay relative to control. The following applies: read-out: Activity.
A further assay deals with SNB-75. Kind of assay: Growth inhibition of human SNB75 cells assessed as cell growth at 0.3 uM incubated for 48 hrs by sulforhodamine B assay relative to control. The note with it: SNB-75, 48 h, read-out: Activity.
A further assay deals with A498. The assay is described as follows: Growth inhibition of human A498 cells assessed as cell growth at 0.3 uM incubated for 48 hrs by sulforhodamine B assay relative to control. The note with it: A498, 48 h, read-out: Activity.
The subject of a further assay is SF-295. Kind of assay: Growth inhibition of human SF295 cells assessed as cell growth at 0.003 uM incubated for 48 hrs by sulforhodamine B assay relative to control. The note with it: SF-295, 48 h, read-out: Activity.
In another assay the test system is NCI-H226. Kind of assay: Growth inhibition of human NCI-H226 cells assessed as cell growth at 30 uM incubated for 48 hrs by sulforhodamine B assay relative to control. The note with it: NCI-H226, 48 h, read-out: Activity.
Assay [8] concerns UACC-257. Kind of assay: Growth inhibition of human UACC257 cells assessed as cell growth at 0.03 uM incubated for 48 hrs by sulforhodamine B assay relative to control. The following applies: UACC-257, 48 h, read-out: Activity.
For another assay, the system named is COLO 205. The assay is described as follows: Growth inhibition of human COLO205 cells assessed as cell growth at 30 uM incubated for 48 hrs by sulforhodamine B assay relative to control. The following applies: COLO 205, 48 h, read-out: Activity.
In assay [9] the test system is SW-620. The assay is described as follows: Growth inhibition of human SW620 cells assessed as cell growth at 0.003 uM incubated for 48 hrs by sulforhodamine B assay relative to control. The following applies: SW-620, 48 h, read-out: Activity.
The next assay has as its system HOP-62. Kind of assay: Growth inhibition of human HOP62 cells assessed as cell growth at 0.3 uM incubated for 48 hrs by sulforhodamine B assay relative to control. The following applies: HOP-62, 48 h, read-out: Activity.
Another assay has as its system OVCAR-3. The assay is described as follows: Growth inhibition of human OVCAR3 cells assessed as cell growth at 30 uM incubated for 48 hrs by sulforhodamine B assay relative to control. The following applies: OVCAR-3, 48 h, read-out: Activity.
Assay [10] deals with UACC-257. The assay is described as follows: Growth inhibition of human UACC257 cells assessed as cell growth at 3 uM incubated for 48 hrs by sulforhodamine B assay relative to control. The following applies: UACC-257, 48 h, read-out: Activity.
The test system of assay [11] is PC-3. Kind of assay: Growth inhibition of human PC3 cells assessed as cell growth at 3 uM incubated for 48 hrs by sulforhodamine B assay relative to control. The following applies: PC-3, 48 h, read-out: Activity.
The test system of another assay is UO-31. The assay is described as follows: Growth inhibition of human UO31 cells assessed as cell growth at 0.03 uM incubated for 48 hrs by sulforhodamine B assay relative to control. The following applies: UO-31, 48 h, read-out: Activity.
In a further assay the test system is HCT-116. Kind of assay: Growth inhibition of human HCT116 cells assessed as cell growth at 0.3 uM incubated for 48 hrs by sulforhodamine B assay relative to control. The note with it: HCT-116, 48 h, read-out: Activity.
A further assay concerns DU-145. Kind of assay: Growth inhibition of human DU145 cells assessed as cell growth at 0.03 uM incubated for 48 hrs by sulforhodamine B assay relative to control. The following applies: DU-145, 48 h, read-out: Activity.
The test system of assay [12] is Hs-578T. The assay is described as follows: Growth inhibition of human Hs 578T cells assessed as cell growth at 0.03 uM incubated for 48 hrs by sulforhodamine B assay relative to control. The note with it: read-out: Activity.
The test system of assay [13] is ACHN. Kind of assay: Growth inhibition of human ACHN cells assessed as cell growth at 3 uM incubated for 48 hrs by sulforhodamine B assay relative to control. The note with it: read-out: Activity.
The next assay relates to SF-539. Kind of assay: Growth inhibition of human SF539 cells assessed as cell growth at 0.003 uM incubated for 48 hrs by sulforhodamine B assay relative to control. The note with it: SF-539, 48 h, read-out: Activity.
In another assay the test system is NCI-H460. The assay is described as follows: Growth inhibition of human NCI-H460 cells assessed as cell growth at 30 uM incubated for 48 hrs by sulforhodamine B assay relative to control. The following applies: NCI-H460, 48 h, read-out: Activity.
In another assay the test system is SK-MEL-2. Kind of assay: Growth inhibition of human SK-MEL-2 cells assessed as cell growth at 0.03 uM incubated for 48 hrs by sulforhodamine B assay relative to control. The following applies: SK-MEL-2, 48 h, read-out: Activity.
For assay [14], the system named is ACHN. Kind of assay: Growth inhibition of human ACHN cells assessed as cell growth at 0.03 uM incubated for 48 hrs by sulforhodamine B assay relative to control. The note with it: read-out: Activity.
Assay [15] deals with K562. Kind of assay: Growth inhibition of human K562 cells assessed as cell growth at 0.3 uM incubated for 48 hrs by sulforhodamine B assay relative to control. The following applies: K562, 48 h, read-out: Activity.
In another assay the test system is SF-268. Kind of assay: Growth inhibition of human SF268 cells assessed as cell growth at 0.003 uM incubated for 48 hrs by sulforhodamine B assay relative to control. The note with it: SF-268, 48 h, read-out: Activity.

For `COc1cc2cc(Oc3ccc(NC(=O)Nc4cc(C(F)(F)F)cc(C(F)(F)F)c4)cc3)c(C)nc2cc1OC`, the growth at 0.01 µM with SK-MEL-5 stood at 100%; in the assay with NCI-H322M [7], 94%. Further, the growth at 10 µM with SR was -20%; with K562 [1], -47%; in the assay with NCI-H322M [2] it was 14.9%; with Hs-578T [6], -19%. Moreover, the growth at 0.1 µM in the assay with LOX IMVI was found to be 95%; in the assay on UACC-257 [3] it was 110%; with BT-549 it was 94%; with SW-620 [5], 100%. The growth at 1 µM was found to be 39% in the assay with SNB-19 and 27% with PC-3 [4]. The growth at 100 µM in the assay with HT-29 is -90%.
Consider `Cc1nc2cc(O)c(O)cc2cc1Oc1ccc(NC(=O)Nc2ccc(Cl)c(Cl)c2)cc1`, for which the growth at 0.3 µM worked out at 75% with SNB-75; 80% in the assay with A498; 108% with HOP-62; 90% in the assay with HCT-116; 123% with K562 [15]. Besides, the growth at 0.003 µM came to 93% in the assay with SF-295, 100% with SW-620 [9], 102% in the assay on SF-539 and 100% in the assay on SF-268. In addition, the growth at 30 µM in the assay with NCI-H226 was 9%; in the assay on COLO 205 it was 16%; in the assay with OVCAR-3 it was -29%; with NCI-H460 it was -44%. In addition, the growth at 10 µM in the assay with NCI-H322M [2] amounted to 94%. For the same compound, the growth at 0.03 µM worked out at 86% in the assay on UACC-257 [8]; 98% with UO-31; 111% with DU-145; 85% with Hs-578T [12]; 113% in the assay with SK-MEL-2; 107% in the assay on ACHN [14]. Moreover, the growth at 3 µM in the assay on UACC-257 [10] was 87%; with PC-3 [11] it was 56%; in the assay with ACHN [13] it was 51%.
For the compound `COc1cc2cc(Oc3ccc(NC(=O)Nc4ccc(Cl)c(Cl)c4)cc3)c(C)nc2cc1OC`, the results for the growth at 0.01 µM in the assay on SK-MEL-5 and in the assay with NCI-H322M [7] were 103% and 100%, respectively. Also, the growth at 10 µM with SR was 1%; in the assay with K562 [1], 15%; in the assay on Hs-578T [6], -2%. Also, the growth at 0.1 µM in the assay with LOX IMVI is 96%; in the assay with UACC-257 [3], 92%; in the assay on BT-549, 88%; in the assay on SW-620 [5] it was 101%. Besides, the growth at 1 µM was determined as 92% with SNB-19 and 67% in the assay with PC-3 [4]. Besides, in the assay with HT-29, the growth at 100 µM was -100%.
With `COc1cc2cc(Oc3ccc(NC(=O)Nc4ccc(Cl)c(C(F)(F)F)c4)cc3)c(C)nc2cc1OC`, the growth at 0.3 µM in the assay on SNB-75 came out at 90%; in the assay with A498, 78%; with HOP-62, 86%; in the assay with HCT-116, 91%; in the assay on K562 [15], 93%. Besides, the growth at 0.003 µM in the assay with SF-295 is 90%; in the assay on SW-620 [9], 95%; in the assay on SF-539 it was 108%; in the assay with SF-268, 95%. The growth at 30 µM in the assay on NCI-H226 is -49%; with COLO 205, -92%; in the assay on OVCAR-3 it was -87%; in the assay on NCI-H460, -62%. Besides, the growth at 0.03 µM was found to be 86% in the assay with UACC-257 [8]; 89% in the assay on UO-31; 96% in the assay on DU-145; 109% with Hs-578T [12]; 97% in the assay on SK-MEL-2; 97% in the assay on ACHN [14]. The growth at 3 µM with UACC-257 [10] is -13%; in the assay on PC-3 [11], -3%; with ACHN [13] it was 8%.
